Experiments:
Leishmania donovani [1] = test: Antileishmanial activity against axenic amastigote stage of Leishmania donovani MHOM/SD/1962/1S-Cl2d assessed as parasite growth inhibition at 1 uM after 24 hrs by AlamarBlue assay relative to control; format: functional; conditions: read-out: GI
Leishmania donovani [2] = test: Antileishmanial activity against intracellular amastigote stage of Leishmania donovani infected in human THP1 cells assessed as parasite growth inhibition at 1 uM after 48 hrs by luciferase reporter gene assay relative to control; format: functional; conditions: THP-1, 48 h, read-out: GI
Leishmania donovani [3] = test: Antileishmanial activity against axenic amastigote stage of Leishmania donovani MHOM/SD/1962/1S-Cl2d assessed as parasite growth inhibition at 50 uM after 24 hrs by AlamarBlue assay (reference value: 0.0 +/- 4.6%); format: functional; conditions: read-out: GI
Leishmania donovani [4] = test: Antileishmanial activity against axenic amastigote stage of Leishmania donovani MHOM/SD/1962/1S-Cl2d assessed as parasite growth inhibition at 15 uM after 24 hrs by AlamarBlue assay (reference value: 1.5 +/- 3.8%); format: functional; conditions: read-out: GI
Leishmania donovani [5] = test: Antileishmanial activity against axenic amastigote stage of Leishmania donovani MHOM/SD/1962/1S-Cl2d assessed as parasite growth inhibition at 5 uM after 24 hrs by AlamarBlue assay (reference value: 0.0 +/- 0.9%); format: functional; conditions: read-out: GI
Leishmania donovani [6] = test: Antileishmanial activity against axenic amastigote stage of Leishmania donovani MHOM/SD/1962/1S-Cl2d assessed as parasite growth inhibition after 24 hrs by AlamarBlue assay; format: functional, organism-based
[7] = Selectivity index, ratio of IC50 for human THP1 cells to IC50 for axenic amastigote stage of Leishmania donovani MHOM/SD/1962/1S-Cl2d; format: toxicity, cell-based, THP-1; conditions: read-out: Ratio IC50
THP-1 = test: Cytotoxicity against human THP1 cells assessed as cell viability after 48 hrs by AlamarBlue assay; format: cell-based; conditions: THP-1, 48 h
Leishmania donovani [8] = test: Antileishmanial activity against intracellular amastigote stage of Leishmania donovani infected in human THP1 cells assessed as parasite growth inhibition at 5 uM after 48 hrs by luciferase reporter gene assay relative to control; format: functional; conditions: THP-1, 48 h, read-out: GI

| Compound | inhibition of growth at 50 µM (Leishmania donovani [3]) [%] | inhibition of growth at 15 µM (Leishmania donovani [4]) [%] | inhibition of growth at 5 µM (Leishmania donovani [5]) [%] | other results |
| --- | --- | --- | --- | --- |
| C[C@@H]1[C@H](O)[C@@H](C)/C=C/C=C/C=C/C=C/C=C/C=C/C=C/[C@H](O[C@@H]2O[C@H](C)[C@@H](O)[C@H](N)[C@@H]2O)C[C@@H]2O[C@](O)(C[C@@H](O)C[C@@H](O)[C@H](O)CC[C@@H](O)C[C@@H](O)CC(=O)O[C@H]1C)C[C@H](O)[C@H]2C(=O)O [AMPHOTERICIN B] | – | – | – | inhibition of growth at 1 µM (Leishmania donovani [1]): 99.9%; inhibition of growth at 1 µM (Leishmania donovani [2]): 96.7% |
| C=C(C)[C@@H]1CC[C@]2(C=O)CC[C@]3(C)[C@H](CC[C@@H]4[C@@]5(C)Cc6cnoc6C(C)(C)[C@@H]5CC[C@]43C)[C@@H]12 | 34.2 | 21.1 | – | – |
| C=C(C)[C@@H]1CC[C@]2(CO)CC[C@]3(C)[C@H](CC[C@@H]4[C@@]5(C)Cc6cnoc6C(C)(C)[C@@H]5CC[C@]43C)[C@@H]12 | 56.9 | – | – | – |
| C=C(C)[C@@H]1CC[C@]2(C(=O)O)CC[C@]3(C)[C@H](CC[C@@H]4[C@@]5(C)Cc6nccnc6C(C)(C)[C@@H]5CC[C@]43C)[C@@H]12 | 92.7 | 79.7 | 20.3 | IC50 (Leishmania donovani [6]): 13.2 µM |
| C=C(C)[C@@H]1CC[C@]2(C(N)=O)CC[C@]3(C)[C@H](CC[C@@H]4[C@@]5(C)Cc6nccnc6C(C)(C)[C@@H]5CC[C@]43C)[C@@H]12 | 94.9 | 35.2 | – | – |
| C=C(C)[C@@H]1CC[C@]2(C(=O)O)CC[C@]3(C)[C@H](CC[C@@H]4[C@@]5(C)Cc6cnoc6C(C)(C)[C@@H]5CC[C@]43C)[C@@H]12 | 95.7 | 15.6 | – | – |
| C=C(C)[C@@H]1CC[C@]2(C(=O)O)CC[C@]3(C)[C@H](CC[C@@H]4[C@@]5(C)CCC(=O)NC(C)(C)[C@@H]5CC[C@]43C)[C@@H]12 | 98.2 | 75.2 | 52 | IC50 (Leishmania donovani [6]): 4.3 µM; selectivity ratio [7]: 12.9; IC50 (THP-1): 55.5 µM; inhibition of growth at 5 µM (Leishmania donovani [8]): 54% |
| C=C(C)[C@@H]1CC[C@]2(C(=O)O)CC[C@]3(C)[C@H](CC[C@@H]4[C@@]5(C)CC[C@H](OC(=O)CC(C)(C)C(=O)O)C(C)(C)[C@@H]5CC[C@]43C)[C@@H]12 [BEVIRIMAT] | 100 | 69.1 | 59 | IC50 (Leishmania donovani [6]): 7.2 µM; selectivity ratio [7]: 7.5; IC50 (THP-1): 54 µM |
| C=C(C)[C@@H]1CC[C@]2(/C=N/O)CC[C@]3(C)[C@H](CC[C@@H]4[C@@]5(C)Cc6nccnc6C(C)(C)[C@@H]5CC[C@]43C)[C@@H]12 | 2.8 | – | – | – |
| CC1(C)CC[C@]23CC[C@]4(C)[C@H](CC[C@@H]5[C@@]6(C)Cc7c([nH]c8ccc(F)cc78)C(C)(C)[C@@H]6CC[C@]54C)[C@H]2[C@H]1OC3 | 6.8 | 10.2 | 0.2 | – |
| C=C(C)[C@@H]1CC[C@]2(C(=O)O)CC[C@]3(C)[C@H](CC[C@@H]4[C@@]5(C)Cc6cccnc6C(C)(C)[C@@H]5CC[C@]43C)[C@@H]12 | 87.9 | 25.6 | – | – |
| CC1(C)CC[C@]23CC[C@]4(C)[C@H](CC[C@@H]5[C@@]6(C)Cc7c([nH]c8ccccc78)C(C)(C)[C@@H]6CC[C@]54C)[C@H]2[C@H]1OC3 | 19.8 | 18.5 | – | – |
| C=C(C)[C@@H]1CC[C@]2(C(=O)O)CC[C@]3(C)[C@H](CC[C@@H]4[C@@]5(C)Cc6c[nH]nc6C(C)(C)[C@@H]5CC[C@]43C)[C@@H]12 | 60.2 | – | – | – |
| C=C(C)[C@@H]1CC[C@]2(C(=O)O)CC[C@]3(C)[C@H](CC[C@@H]4[C@@]5(C)Cc6c([nH]c7ccc(OC)cc67)C(C)(C)[C@@H]5CC[C@]43C)[C@@H]12 | 29.3 | 17.5 | 14 | – |
| C=C(C)[C@@H]1CC[C@]2(C(=O)O)CC[C@]3(C)[C@H](CC[C@@H]4[C@@]5(C)Cc6c([nH]c7ccccc67)C(C)(C)[C@@H]5CC[C@]43C)[C@@H]12 | 23.4 | 27.4 | 5 | – |
| C=C(C)[C@@H]1CC[C@]2(C(=O)O)CC[C@]3(C)[C@H](CC[C@@H]4[C@@]5(C)CCC(=O)C(C)(C)[C@@H]5CC[C@]43C)[C@@H]12 [BETUNOLIC ACID] | 98.6 | 45.9 | – | – |
| C=C(C)[C@@H]1CC[C@]2(C(N)=O)CC[C@]3(C)[C@H](CC[C@@H]4[C@@]5(C)Cc6cnoc6C(C)(C)[C@@H]5CC[C@]43C)[C@@H]12 | 84.3 | 16.7 | – | – |
| C=C(C)[C@@H]1CC[C@]2(COC(C)=O)CC[C@]3(C)[C@H](CC[C@@H]4[C@@]5(C)Cc6cnoc6C(C)(C)[C@@H]5CC[C@]43C)[C@@H]12 | 6.1 | – | – | – |
| C=C(C)[C@@H]1CC[C@]2(C(=O)O)CC[C@]3(C)[C@H](CC[C@@H]4[C@@]5(C)CC[C@H](O)C(C)(C)[C@@H]5CC[C@]43C)[C@@H]12 [BETULINIC ACID] | 61.1 | – | – | – |
| CC(C)[C@@H]1CC[C@]2(C(=O)O)CC[C@]3(C)[C@H](CC[C@@H]4[C@@]5(C)Cc6cnoc6C(C)(C)[C@@H]5CC[C@]43C)[C@@H]12 | 2.4 | – | – | – |

Source: ChEMBL document CHEMBL3132818, “Heterocycle-fused lupane triterpenoids inhibit Leishmania donovani amastigotes” (Medchemcomm, 2014)
